{"source": "patent US12036228B2", "about": "“Treatment of seizure disorders” (Shackelford Pharma Inc., priority 2022, dated 2024)", "tested_on": "GTC seizures in human patients", "experiment": "THC treatment of several human patients with GTC seizures (responder rate, one-year remission rate, adverse effects)", "format": "in vivo", "conditions": "for Increase in 1 YR Seizure Remission Rate over expected: expected 5%; for THC-related adverse event: one adult patient", "from_the_text": "Several human patients commenced treatment with THC after a first visit. More details about the treatment are provided below. The group included 82 total adult patients and 12 total pediatric patients. Of those 94 patients, 34 adult patients and 10 pediatric patients had experienced at least one GTC seizure in the year preceding the first visit. At the time of first visit, 14 of the 34 adult patients and 8 of the 10 pediatric patients had never taken THC. At the time of first visit, five of the 34 adult patients and two of the 10 pediatric patients were consistently/regularly taking THC. At the time of first visit, 15 of the 34 adult patients and none of the 10 pediatric patients were inconsistently/irregularly taking THC or had taken THC at some point in the past and were no longer taking THC.\nAt the time of first visit, 16 of the 34 adult patients had treatment resistant epilepsy, which means the patients had persistent GTC seizures despite taking two different anti-seizure medications at, or prior to, the first visit. At the time of first visit, all 10 of the pediatric patients had treatment resistant epilepsy.\nThe first visit means the date when the patient first saw the doctor for evaluation for THC treatment for GTC seizures. Responder rates means the percentage of patients that had at least a 50% reduction in GTC seizure frequency over a one-year treatment period with THC. One-year remission rate means the percentage of patients that experienced no GTC seizures in a one-year period after commencing THC treatment.\nAll of the 34 adult patients and 10 pediatric patients were taking other anti-seizure medications or had other anti-seizure treatment at the time of the first visit. […] Those anti-seizure medications and other anti-seizure treatments included: lamotrigine, topiramate, topiramate XR, vagus nerve stimulation, phenytoin, valproic acid, zonisamide, benzodiazepine, surgery, levetiracetam, carbamazepine, oxcarbazepine, lacosamide, perampanel, clonazepam, phenobarbial, pregabalin, gabapentin, rufinamide, CBD (e.g., Epidiolex), clobazam, and felbamate. Also, all patients who were using THC oral dosages were using products that included no CBD or products that included CBD in doses well below the therapeutic dose for Epidiolex.\nTHC Treatment for the 82 adult patients varied. Many of the patients smoked marijuana, so the dosage and/or timing of the dosage was unknown. Because CBD is delivered at sub-therapeutic levels when marijuana is smoked, it is acceptable to attribute any therapeutic effect to THC. The label for the CBD drug Epidiolex includes dosages starting at 5 mg/kg daily for all indications, and increasing to maintenance doses of 10 mg/kg or 20 mg/kg for Lennox-Gestault Syndrome and Dravet Syndrome, and increasing to maintenance doses of 25 mg/kg per day for Tuberous Sclerosis Complex. When 1 gram of cannabis is smoked, it delivers CBD to the lungs in doses well below the therapeutic dose levels prescribed for Epidiolex. Some other patients took unknown dosages of THC orally.", "key": {"[1]": {"conditions": "14 adult patients who had never taken THC prior to first visit"}}, "note": "Where “and” joins values, the source holds several entries; their conditions need not be identical. Identical values can stand only once.", "data": [{"smiles": "CCCCCc1cc(O)c2c(c1)OC(C)(C)[C@@H]1CCC(C)=C[C@@H]21", "note": "[THC, Delta-9-tetrahydrocannabinol]", "values": [{"measurement": "GTC seizure outcome, individual pediatric patient", "setting": "1.8 mg THC transdermal patch daily+2.5 mg oral THC at bedtime, 5 mg CBD BID, 63.3 kg", "value": "50% reduction in GTC seizure rates in a one-year period following THC treatment"}, {"measurement": "GTC seizure outcome, individual pediatric patient", "setting": "2-3 mg THC+30 mg CBD orally, BID, 17.3 kg", "value": "no GTC seizures in a one-year period following THC treatment"}, {"measurement": "GTC seizure outcome, individual pediatric patient", "setting": "5-10 mg THC+10-20 mg CBD orally, daily at bedtime, 34.1 kg", "value": "no GTC seizures in a one-year period following THC treatment"}, {"measurement": "adverse effects", "setting": "12 children", "value": "none experienced adverse effects"}, {"measurement": "1 YR Seizure Remission Rate", "setting": "[1]", "value": 36, "unit": "%"}, {"measurement": "Responder Rate (at least 50% reduction in GTC seizure frequency over one year)", "setting": "[1]", "value": 71, "unit": "%"}, {"measurement": "Adverse Events", "setting": "82 adult patients", "value": "2% (2/82)"}, {"measurement": "THC-related adverse effects", "setting": "82 adults treated with THC (sleepiness; reduced mental clarity)", "value": "only two patients experienced THC-related adverse effects"}, {"measurement": "Increase in 1 YR Seizure Remission Rate over expected", "setting": "Adult, calculated using the 29% (2/7) remission rate", "value": "~**5.8X"}, {"measurement": "GTC seizure outcome, individual pediatric patient", "setting": "GTCs and cerebral palsy, CBD 20 mg with 6% THC (1.2 mg) per day orally", "value": "resolution of all GTC seizure activity"}, {"measurement": "Adverse Events", "setting": "Pediatric patients (0/13)", "value": "0% (0/13)"}, {"measurement": "Increase in 1 YR Seizure Remission Rate over expected", "setting": "Pediatric, calculated using the 37.5% (3/8) remission rate", "value": "~***7.5X"}, {"measurement": "effect as rescue treatment, individual pediatric patient", "setting": "THC (only), 10 mg/mL, 1-3 mg THC as rescue", "value": "complete resolution of seizures"}, {"measurement": "patients with 50% reduction in GTC seizure rates and no GTC seizures in a one-year period following THC treatment", "setting": "of 34 adult patients", "value": 15, "unit": "patients"}, {"measurement": "patients with 50% reduction in GTC seizure rates but not seizure free for a one-year period following THC treatment", "setting": "of 34 adult patients", "value": 9, "unit": "patients"}, {"measurement": "patients without 50% reduction in GTC seizure rates and not seizure free for a one-year period following THC treatment", "setting": "of 34 adult patients", "value": 10, "unit": "patients"}, {"measurement": "THC-related adverse event", "setting": "2-3 mg THC and 38 mg CBD orally TDD", "value": "sleepiness"}, {"measurement": "THC-related adverse event", "setting": "unknown amounts of THC orally", "value": "mental unclarity"}, {"measurement": "GTC seizure outcome, individual pediatric patient", "setting": "same patient, 60-70 mg THC orally TDD in 2 divided doses", "value": "continued seizure remission"}, {"measurement": "GTC seizure outcome, individual pediatric patients", "setting": "two patients, 4-12 mg THC TDD", "value": "no GTC seizures in a one-year period following THC treatment and 50% reduction in GTC seizure rate in a one-year period following THC treatment"}]}]}
